Measured values as given in patent US20100267561A1, “HERBICIDAL PYRIDAZINONE DERIVATIVES” (priority 2007, published 2010).

What was measured:
Assay type in all cases: in vivo
wild oat (Avena fatua) = assay: Test C pre-/postemergence plant response; settings: Preemergence
In short: (§1)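 Pre/post spray; solvent blend non-phytotoxic, with surfactant; post stage 1–4 leaves (2–18 cm); controlled environment 15–25 d; visual score 0–100 relative to controls, 100 = complete control.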

[1] = test system: downy bromegrass (Bromus tectorum); assay: Test C pre-/postemergence plant response; settings: Preemergence
In short: as §1

[2] = test system: broadleaf signalgrass (Brachiaria platyphylla); assay: Test E pre-/postemergence plant response; settings: Postemergence, scale 0 to 100
In short: (§2)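 Greenhouse test. Compound, formulated in a non-phytotoxic solvent with surfactant, is applied preemergence to planted seeds and postemergence to 1- to 4-leaf plants of 2 to 18 cm. Plants are compared with controls after 14 to 21 days and scored 0 (no effect) to 100 (complete control).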

[3] = test system: johnsongrass (Sorghum halepense); assay: Test E pre-/postemergence plant response; settings: Postemergence, scale 0 to 100
In short: as §2

[4] = test system: dallisgrass (Paspalum dilatatum); assay: Test E pre-/postemergence plant response; settings: Postemergence, scale 0 to 100
In short: as §2

[5] = test system: surinam grass (Brachiaria decumbens); assay: Test E pre-/postemergence plant response; settings: Postemergence, scale 0 to 100
In short: as §2

[6] = test system: Italian ryegrass (Lolium multiflorum); assay: Test E pre-/postemergence plant response; settings: Postemergence, scale 0 to 100
In short: as §2

[7] = test system: naked crabgrass (Digitaria nuda); assay: Test E pre-/postemergence plant response; settings: Postemergence, scale 0 to 100
In short: as §2

[8] = test system: bermudagrass (Cynodon dactylon); assay: Test E pre-/postemergence plant response; settings: Postemergence, scale 0 to 100
In short: as §2

[9] = test system: itchgrass (Rottboellia cochinchinensis); assay: Test E pre-/postemergence plant response; settings: Postemergence, scale 0 to 100
In short: as §2

[10] = test system: black mustard (Brassica nigra); assay: Test E pre-/postemergence plant response; settings: Postemergence, scale 0 to 100
In short: as §2

[11] = test system: quackgrass (Elytrigia repens); assay: Test E pre-/postemergence plant response; settings: Postemergence, scale 0 to 100
In short: as §2

[12] = test system: common purslane (Portulaca oleracea); assay: Test E pre-/postemergence plant response; settings: Postemergence, scale 0 to 100
In short: as §2

[13] = 8 g ai/ha, scale 0 to 100 (0 no effect, 100 complete control)
[14] = 16 g ai/ha, scale 0 to 100 (0 no effect, 100 complete control)
[15] = 31 g ai/ha, scale 0 to 100 (0 no effect, 100 complete control)
[16] = 62 g ai/ha, scale 0 to 100, 0 no effect, 100 complete control

Cc1cc(-c2ccc(Cl)cc2)nn1-c1c(OC(=O)Oc2ccccc2)cnn(C)c1=O [Compound 54]
Plant response rating, Oat, Wild (wild oat (Avena fatua); [13]): 0 | Plant response rating, Oat, Wild (wild oat (Avena fatua); [14]): 0 | Plant response rating, Oat, Wild (wild oat (Avena fatua); [15]): 40 | Plant response rating, Oat, Wild (wild oat (Avena fatua); [16]): 70 | Plant response rating, Bromegrass, Downy [1, 13]: 0 | Plant response rating, Bromegrass, Downy [1, 14]: 0 | Plant response rating, Bromegrass, Downy [1, 15]: 15 | Plant response rating, Bromegrass, Downy [1, 16]: 80 | Plant response rating, Signalgrass ([2]; 8 g ai/ha): 75 | Plant response rating, Signalgrass ([2]; 16 g ai/ha): 90 | Plant response rating, Signalgrass ([2]; 31 g ai/ha): 98 | Plant response rating, Signalgrass ([2]; 62 g ai/ha): 100 | Plant response rating, Johnsongrass ([3]; 8 g ai/ha): 20 | Plant response rating, Johnsongrass ([3]; 16 g ai/ha): 60 | Plant response rating, Johnsongrass ([3]; 31 g ai/ha): 100 | Plant response rating, Johnsongrass ([3]; 62 g ai/ha): 100 | Plant response rating, Dallisgrass ([4]; 8 g ai/ha): 20 | Plant response rating, Dallisgrass ([4]; 16 g ai/ha): 30 | Plant response rating, Dallisgrass ([4]; 31 g ai/ha): 40 | Plant response rating, Dallisgrass ([4]; 62 g ai/ha): 80 | Plant response rating, Surinam Grass ([5]; 8 g ai/ha): 90 | Plant response rating, Surinam Grass ([5]; 16 g ai/ha): 90 | Plant response rating, Surinam Grass ([5]; 31 g ai/ha): 100 | Plant response rating, Surinam Grass ([5]; 62 g ai/ha): 100 | Plant response rating, Ryegrass, Italian ([6]; 8 g ai/ha): 80 | Plant response rating, Ryegrass, Italian ([6]; 16 g ai/ha): 80 | Plant response rating, Ryegrass, Italian ([6]; 31 g ai/ha): 100 | Plant response rating, Ryegrass, Italian ([6]; 62 g ai/ha): 100 | Plant response rating, Crabgrass, Naked ([7]; 8 g ai/ha): 10 | Plant response rating, Crabgrass, Naked ([7]; 16 g ai/ha): 85 | Plant response rating, Crabgrass, Naked ([7]; 31 g ai/ha): 90 | Plant response rating, Crabgrass, Naked ([7]; 62 g ai/ha): 90 | Plant response rating, Bermudagrass ([8]; 8 g ai/ha): 10 | Plant response rating, Bermudagrass ([8]; 16 g ai/ha): 20 | Plant response rating, Bermudagrass ([8]; 31 g ai/ha): 40 | Plant response rating, Bermudagrass ([8]; 62 g ai/ha): 80 | Plant response rating, Itchgrass ([9]; 8 g ai/ha): 10 | Plant response rating, Itchgrass ([9]; 16 g ai/ha): 90 | Plant response rating, Itchgrass ([9]; 31 g ai/ha): 95 | Plant response rating, Itchgrass ([9]; 62 g ai/ha): 100 | Plant response rating, Mustard, Black ([10]; 8 g ai/ha): 0 | Plant response rating, Mustard, Black ([10]; 16 g ai/ha): 0 | Plant response rating, Mustard, Black ([10]; 31 g ai/ha): 0 | Plant response rating, Mustard, Black ([10]; 62 g ai/ha): 0 | Plant response rating, Quackgrass ([11]; 8 g ai/ha): 0 | Plant response rating, Quackgrass ([11]; 16 g ai/ha): 0 | Plant response rating, Quackgrass ([11]; 31 g ai/ha): 0 | Plant response rating, Quackgrass ([11]; 62 g ai/ha): 35 | Plant response rating, Purslane ([12]; 8 g ai/ha): 0 | Plant response rating, Purslane ([12]; 16 g ai/ha): 0 | Plant response rating, Purslane ([12]; 31 g ai/ha): 0 | Plant response rating, Purslane ([12]; 62 g ai/ha): 0
